According to patent publication US6914045B2, “Glycopeptide antibiotics” (Wyeth Holdings Corporation, priority 2001, dated 2005):
Values after ≈ are worked out from the molar mass of the structure shown. Where two headings read alike, the source gives them in different places. Values belong to the molecule of their own block, whether it stands above or below them.

Legend:
Experiment in all cases: in vitro antibacterial evaluation, MIC by broth dilution
Assay type in all cases: cell-based
Enterococcus sp. = tested on: Enterococcus sp.
In short: (§1)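 Broth dilution per NCCLS standard M7-A2 in Muller-Hinton II […], with an inoculum of 5×10^5 CFU/mL and antibiotic spanning 64-0.06 μg/mL. The MIC is the lowest concentration that inhibits growth of the organism.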

Staphylococcus sp. = tested on: Staphylococcus sp.
In short: as §1

Streptococcus sp. = tested on: Streptococcus sp.
In short: as §1

Escherichia coli = tested on: Escherichia coli
In short: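 Broth dilution in Muller-Hinton II medium per NCCLS standard M7-A2, with an inoculum of 5×10^5 CFU/mL and antibiotic tested over 64-0.06 μg/mL. MIC was taken as the lowest concentration inhibiting visible growth.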

[1] = broth dilution, 18 hours at 35° C.

SMILES: CC(C)=Cc1nc2cc(CC3NC(=O)C(C(C)c4ccccc4)NC(=O)CNC(=O)C(CO)NC(=O)C(C(O)C4CNC(=N)N4C4OC(CO)C(O)C(O)C4O)NC(=O)C(C(O)C4CNC(=N)N4)NC3=O)ccc2o1 (stereo not drawn) [Example 40, Cyclo[3-[2-(2-methylprop-1-en-1-yl)-1,3-benzoxazol-5-yl]alanyl-3-(2-iminoimidazolidin-4-yl)seryl-3-(3-hexopyranosyl-2-iminoimidazolidin-4-yl)serylserylglycyl-β-methylphenyl-alanyl]]
- MIC Enterococcus avium (GC 4558) (Enterococcus sp.): 64 µg/mL (≈ 60.9 µM)
- MIC Enterococcus faecalis (ATCC 29212) (Enterococcus sp.): 128 µg/mL (≈ 122 µM)
- MIC Enterococcus faecalis (GC 2242) (Enterococcus sp.): 128 µg/mL (≈ 122 µM)
- MIC Enterococcus faecalis (GC 2691) (Enterococcus sp.): 128 µg/mL (≈ 122 µM)
- MIC Enterococcus faecalis (GC 3059) (Enterococcus sp.): >128 µg/mL
- MIC Enterococcus faecalis (GC 4552) (Enterococcus sp.): >128 µg/mL
- MIC Enterococcus faecalis (GC 4553) (Enterococcus sp.): 64 µg/mL (≈ 60.9 µM)
- MIC Enterococcus faecalis (GC 4554) (Enterococcus sp.): >128 µg/mL
- MIC Enterococcus faecalis (GC 6189) (Enterococcus sp.): 128 µg/mL (≈ 122 µM)
- MIC Enterococcus faecium (GC 2243) (Enterococcus sp.): 64 µg/mL (≈ 60.9 µM)
- MIC Enterococcus faecium (GC 4556) (Enterococcus sp.): 128 µg/mL (≈ 122 µM)
- MIC Enterococcus faecium (GC 4557) (Enterococcus sp.): 16 µg/mL (≈ 15.2 µM)
- MIC Coagulase Negative Staphylococcus (GC 4547) (Staphylococcus sp.): 16 µg/mL (≈ 15.2 µM)
- MIC Coagulase Negative Staphylococcus (GC 4548) (Staphylococcus sp.): 32 µg/mL (≈ 30.5 µM)
- MIC Coagulase Negative Staphylococcus (GC 4549) (Staphylococcus sp.): 16 µg/mL (≈ 15.2 µM)
- MIC Coagulase Negative Staphylococcus (GC 4551) (Staphylococcus sp.): 32 µg/mL (≈ 30.5 µM)
- MIC Coagulase Negative Staphylococcus (GC 6257) (Staphylococcus sp.): 16 µg/mL (≈ 15.2 µM)
- MIC Staphylococcus aureus (ATCC 29213) (Staphylococcus sp.): 64 µg/mL (≈ 60.9 µM)
- MIC Staphylococcus aureus (GC 1131) (Staphylococcus sp.): 64 µg/mL (≈ 60.9 µM)
- MIC Staphylococcus aureus (GC 3051) (Staphylococcus sp.): 64 µg/mL (≈ 60.9 µM)
- MIC Staphylococcus aureus (GC 3053) (Staphylococcus sp.): 64 µg/mL (≈ 60.9 µM)
- MIC Staphylococcus aureus (GC 4541) (Staphylococcus sp.): 64 µg/mL (≈ 60.9 µM)
- MIC Staphylococcus aureus (GC 4542) (Staphylococcus sp.): 64 µg/mL (≈ 60.9 µM)
- MIC Staphylococcus aureus (GC 4544) (Staphylococcus sp.): 32 µg/mL (≈ 30.5 µM)
- MIC Staphylococcus aureus (GC 4545) (Staphylococcus sp.): 32 µg/mL (≈ 30.5 µM)
- MIC Staphylococcus aureus-SMITH (GC 4543) (Staphylococcus sp.): 64 µg/mL (≈ 60.9 µM)
- MIC Staphylococcus haemolyticus (GC 4546) (Staphylococcus sp.): 16 µg/mL (≈ 15.2 µM)
- MIC Streptococcus agalactiae (GC 4564) (Streptococcus sp.): 64 µg/mL (≈ 60.9 µM)
- MIC Streptococcus pneumoniae (ATCC 6301) (Streptococcus sp.): 64 µg/mL (≈ 60.9 µM)
- MIC Streptococcus pneumoniae (GC 1894) (Streptococcus sp.): 32 µg/mL (≈ 30.5 µM)
- MIC Streptococcus pneumoniae (GC 4565) (Streptococcus sp.): 128 µg/mL (≈ 122 µM)
- MIC Streptococcus pyogenes (GC 4563) (Streptococcus sp.): 32 µg/mL (≈ 30.5 µM)
- MIC Escherichia coli (ATCC 25922) (Escherichia coli): 32 µg/mL (≈ 30.5 µM)
- MIC Escherichia coli (GC 4559) (Escherichia coli): 32 µg/mL (≈ 30.5 µM)
- MIC Escherichia coli (GC 4560) (Escherichia coli): 16 µg/mL (≈ 15.2 µM)

- MIC Enterococcus avium (GC 4558) (Enterococcus sp.; [1]): 16 µg/mL (≈ 11.5 µM)
- MIC Enterococcus faecalis (ATCC 29212) (Enterococcus sp.; [1]): 16 µg/mL (≈ 11.5 µM)
- MIC Enterococcus faecalis (GC 2242) (Enterococcus sp.; [1]): 16 µg/mL (≈ 11.5 µM)
- MIC Enterococcus faecalis (GC 2691) (Enterococcus sp.; [1]): 16 µg/mL (≈ 11.5 µM)
- MIC Enterococcus faecalis (GC 3059) (Enterococcus sp.; [1]): 32 µg/mL (≈ 23 µM)
- MIC Enterococcus faecalis (GC 4552) (Enterococcus sp.; [1]): 16 µg/mL (≈ 11.5 µM)
- MIC Enterococcus faecalis (GC 4553) (Enterococcus sp.; [1]): 32 µg/mL (≈ 23 µM)
- MIC Enterococcus faecalis (GC 4554) (Enterococcus sp.; [1]): 32 µg/mL (≈ 23 µM)
- MIC Enterococcus faecalis (GC 6189) (Enterococcus sp.; [1]): 16 µg/mL (≈ 11.5 µM)
- MIC Enterococcus faecium (GC 2243) (Enterococcus sp.; [1]): 16 µg/mL (≈ 11.5 µM)
- MIC Enterococcus faecium (GC 4556) (Enterococcus sp.; [1]): 16 µg/mL (≈ 11.5 µM)
- MIC Enterococcus faecium (GC 4557) (Enterococcus sp.; [1]): 8 µg/mL (≈ 5.74 µM)
- MIC Enterococcus faecalis (ATCC 29212) (Enterococcus sp.; broth dilution, inoculum 5×10^5 CFU/mL, 18 hours at 35° C., strain ATCC 29212): 16 µg/mL (≈ 11.5 µM)
- MIC Enterococcus faecalis (GC 2242) (Enterococcus sp.; broth dilution, inoculum 5×10^5 CFU/mL, 18 hours at 35° C., strain GC 2242): 16 µg/mL (≈ 11.5 µM)
- MIC Enterococcus faecium (GC 2243) (Enterococcus sp.; broth dilution, inoculum 5×10^5 CFU/mL, 18 hours at 35° C., strain GC 2243): 16 µg/mL (≈ 11.5 µM)
- MIC Enterococcus faecalis (GC 2691) (Enterococcus sp.; broth dilution, inoculum 5×10^5 CFU/mL, 18 hours at 35° C., strain GC 2691): 16 µg/mL (≈ 11.5 µM)
- MIC Enterococcus faecalis (GC 3059) (Enterococcus sp.; broth dilution, inoculum 5×10^5 CFU/mL, 18 hours at 35° C., strain GC 3059): 32 µg/mL (≈ 23 µM)
- MIC Enterococcus faecalis (GC 4552) (Enterococcus sp.; broth dilution, inoculum 5×10^5 CFU/mL, 18 hours at 35° C., strain GC 4552): 16 µg/mL (≈ 11.5 µM)
- MIC Enterococcus faecalis (GC 4553) (Enterococcus sp.; broth dilution, inoculum 5×10^5 CFU/mL, 18 hours at 35° C., strain GC 4553): 32 µg/mL (≈ 23 µM)
- MIC Enterococcus faecalis (GC 4554) (Enterococcus sp.; broth dilution, inoculum 5×10^5 CFU/mL, 18 hours at 35° C., strain GC 4554): 32 µg/mL (≈ 23 µM)
- MIC Enterococcus faecium (GC 4556) (Enterococcus sp.; broth dilution, inoculum 5×10^5 CFU/mL, 18 hours at 35° C., strain GC 4556): 16 µg/mL (≈ 11.5 µM)
- MIC Enterococcus faecium (GC 4557) (Enterococcus sp.; broth dilution, inoculum 5×10^5 CFU/mL, 18 hours at 35° C., strain GC 4557): 8 µg/mL (≈ 5.74 µM)
- MIC Enterococcus avium (GC 4558) (Enterococcus sp.; broth dilution, inoculum 5×10^5 CFU/mL, 18 hours at 35° C., strain GC 4558): 16 µg/mL (≈ 11.5 µM)
- MIC Enterococcus faecalis (GC 6189) (Enterococcus sp.; broth dilution, inoculum 5×10^5 CFU/mL, 18 hours at 35° C., strain GC 6189): 16 µg/mL (≈ 11.5 µM)
- MIC Staphylococcus aureus (ATCC 29213) (Staphylococcus sp.; strain ATCC 29213, broth dilution, 18 hours at 35° C.): 4 µg/mL (≈ 2.87 µM)
- MIC Staphylococcus aureus (GC 1131) (Staphylococcus sp.; strain GC 1131, broth dilution, 18 hours at 35° C.): 4 µg/mL (≈ 2.87 µM)
- MIC Staphylococcus aureus (GC 3051) (Staphylococcus sp.; strain GC 3051, broth dilution, 18 hours at 35° C.): 4 µg/mL (≈ 2.87 µM)
- MIC Staphylococcus aureus (GC 3053) (Staphylococcus sp.; strain GC 3053, broth dilution, 18 hours at 35° C.): 8 µg/mL (≈ 5.74 µM)
- MIC Staphylococcus aureus (GC 4541) (Staphylococcus sp.; strain GC 4541, broth dilution, 18 hours at 35° C.): 4 µg/mL (≈ 2.87 µM)
- MIC Staphylococcus aureus (GC 4542) (Staphylococcus sp.; strain GC 4542, broth dilution, 18 hours at 35° C.): 4 µg/mL (≈ 2.87 µM)
- MIC Staphylococcus aureus-SMITH (GC 4543) (Staphylococcus sp.; strain GC 4543, broth dilution, 18 hours at 35° C.): 2 µg/mL (≈ 1.44 µM)
- MIC Staphylococcus aureus (GC 4544) (Staphylococcus sp.; strain GC 4544, broth dilution, 18 hours at 35° C.): 8 µg/mL (≈ 5.74 µM)
- MIC Staphylococcus aureus (GC 4545) (Staphylococcus sp.; strain GC 4545, broth dilution, 18 hours at 35° C.): 4 µg/mL (≈ 2.87 µM)
- MIC Coagulase Negative Staphylococcus (GC 4547) (Staphylococcus sp.; strain GC 4547, broth dilution, 18 hours at 35° C.): 4 µg/mL (≈ 2.87 µM)
- MIC Coagulase Negative Staphylococcus (GC 4548) (Staphylococcus sp.; strain GC 4548, broth dilution, 18 hours at 35° C.): 1 µg/mL (≈ 0.718 µM)
- MIC Coagulase Negative Staphylococcus (GC 4549) (Staphylococcus sp.; strain GC 4549, broth dilution, 18 hours at 35° C.): 2 µg/mL (≈ 1.44 µM)
- MIC Coagulase Negative Staphylococcus (GC 4551) (Staphylococcus sp.; strain GC 4551, broth dilution, 18 hours at 35° C.): 8 µg/mL (≈ 5.74 µM)
- MIC Streptococcus agalactiae (GC 4564) (Streptococcus sp.; [1]): 2 µg/mL (≈ 1.44 µM)
- MIC Streptococcus pneumoniae (ATCC 6301) (Streptococcus sp.; [1]): 1 µg/mL (≈ 0.718 µM)
- MIC Streptococcus pneumoniae (GC 1894) (Streptococcus sp.; [1]): 0.25 µg/mL (≈ 0.179 µM)
- MIC Streptococcus pneumoniae (GC 4565) (Streptococcus sp.; [1]): 0.5 µg/mL (≈ 0.359 µM)
- MIC Streptococcus pyogenes (GC 4563) (Streptococcus sp.; [1]): 1 µg/mL (≈ 0.718 µM)
- MIC Streptococcus pneumoniae (ATCC 6301) (Streptococcus sp.; broth dilution, inoculum 5×10^5 CFU/mL, 18 hours at 35° C., strain ATCC 6301): 1 µg/mL (≈ 0.718 µM)
- MIC Streptococcus pneumoniae (GC 1894) (Streptococcus sp.; broth dilution, inoculum 5×10^5 CFU/mL, 18 hours at 35° C., strain GC 1894): 0.25 µg/mL (≈ 0.179 µM)
- MIC Streptococcus pyogenes (GC 4563) (Streptococcus sp.; broth dilution, inoculum 5×10^5 CFU/mL, 18 hours at 35° C., strain GC 4563): 1 µg/mL (≈ 0.718 µM)
- MIC Streptococcus agalactiae (GC 4564) (Streptococcus sp.; broth dilution, inoculum 5×10^5 CFU/mL, 18 hours at 35° C., strain GC 4564): 2 µg/mL (≈ 1.44 µM)
- MIC Streptococcus pneumoniae (GC 4565) (Streptococcus sp.; broth dilution, inoculum 5×10^5 CFU/mL, 18 hours at 35° C., strain GC 4565): 0.5 µg/mL (≈ 0.359 µM)
- MIC Escherichia coli (ATCC 25922) (Escherichia coli; 18 hours at 35° C.): 64 µg/mL (≈ 45.9 µM)
- MIC Escherichia coli (GC 4559) (Escherichia coli; 18 hours at 35° C.): 32 µg/mL (≈ 23 µM)
- MIC Escherichia coli (GC 4560) (Escherichia coli; 18 hours at 35° C.): 2 µg/mL (≈ 1.44 µM)
SMILES: CC(c1ccccc1)C1NC(=O)CNC(=O)C(CO)NC(=O)C(C(O)C2CNC(=N)N2C2OC(CO)C(O)C(O)C2O)NC(=O)C(C(O)C2CNC(=N)N2)NC(=O)C(Cc2ccc(OC3OC(CO)C(OC4OC5COC6(CCSCC6)OC5C(O)C4O)C(O)C3O)cc2)NC1=O (centres unmarked) [Example 217]
- MIC Staphylococcus haemolyticus (GC 4546) (Staphylococcus sp.; strain GC 4546, broth dilution, 18 hours at 35° C.): 2 µg/mL (≈ 1.44 µM)
